In patent US12152020B2, “Pesticidally active azole-amide compounds” (SYNGENTA PARTICIPATIONS AG, priority 2018, dated 2024):

Legend:
Type in all cases: in vivo
[1] = tested on: Diabrotica balteata (Corn Root Worm); test: Example B1: Diabrotica balteata, maize sprouts sprayed, L2 larvae; details: 96 h, application rate of 200 ppm, 4 days after infestation, in comparison to untreated samples, read-out: effect in at least one of the two categories (mortality or growth inhibition)
Protocol: Example B1: Diabrotica balteata (Corn Root Worm)
Maize sprouts placed onto an agar layer in 24-well microtiter plates were treated with aqueous test solutions prepared from 10′000 ppm DMSO stock solutions by spraying. After drying, the plates were infested with L2 larvae (6 to 10 per well). The samples were assessed for mortality and growth inhibition in comparison to untreated samples 4 days after infestation.
The following compounds gave an effect of at least 80% in at least one of the two categories (mortality or growth inhibition) at an application rate of 200 ppm: • P2, P3, P4, P5, P6, P7, P8, P14, P15, P16, P17, P18, P19, P20, P21, P22, P23, P24, P25, P27, P28, P29, P30, P31, P32, P33, P34, P35

[2] = tested on: Frankliniella occidentalis (Western Flower Thrips); test: Example B3: Frankliniella occidentalis feeding/contact activity, sunflower leaf discs; details: foliar, 168 h, application rate of 200 ppm, population of mixed ages, 7 days after infestation
Protocol: Example B3: Frankliniella occidentalis (Western Flower Thrips):Feeding/Contact Activity
Sunflower leaf discs were placed on agar in 24-well microtiter plates and sprayed with aqueous test solutions prepared from […] stock solutions. After drying the leaf discs were infested with a Frankliniella population of mixed ages. The samples were assessed for mortality 7 days after infestation.

[3] = tested on: Chilo suppressalis (Striped Rice Stemborer); test: Example B4: Chilo suppressalis, artificial diet, L2 larvae; details: 144 h, application rate of 200 ppm, 6 days after infestation, in comparison to untreated samples, read-out: control in at least one of the categories (mortality, anti-feedant effect, or growth inhibition)
Protocol: Example B4: Chilo suppressalis (Striped Rice Stemborer)
24-well microtiter plates with artificial diet were treated with aqueous test solutions prepared from 10′000 ppm DMSO stock solutions by pipetting. After drying, the plates were infested with L2 larvae (6-8 per well). The samples were assessed for mortality, anti-feeding effect, and growth inhibition in comparison to untreated samples 6 days after infestation. Control of Chilo suppressalis by a test sample is given when at least one of the categories mortality, anti-feedant effect, and growth inhibition is higher than the untreated sample.

[4] = tested on: Plutella xylostella (Diamond Back Moth); test: Example B5: Plutella xylostella, artificial diet in 24-well plates, eggs; details: 192 h, application rate of 200 ppm, 8 days after infestation, in comparison to untreated samples, read-out: effect in at least one of the two categories (mortality or growth inhibition)
Protocol: Example B5: Plutella xylostella (Diamond Back Moth)
24-well microtiter plates with artificial diet were treated with aqueous test solutions prepared from 10′000 ppm DMSO stock solutions by pipetting. After drying, Plutella eggs were pipetted through a plastic stencil onto a gel blotting paper and the plate was closed with it. The samples were assessed for mortality and growth inhibition in comparison to untreated samples 8 days after infestation.
The following compounds gave an effect of at least 80% in at least one of the two categories (mortality or growth inhibition) at an application rate of 200 ppm: • P1, P2, P3, P4, P5, P7, P8, P9, P14, P15, P16, P17, P18, P21, P22, P23, P24, P25, P27, P28, P29, P30, P31, P32, P33, P34, P35, P36

[5] = tested on: Myzus persicae (Green Peach Aphid); test: Example B6: Myzus persicae feeding/contact activity, sunflower leaf discs; details: foliar, 144 h, application rate of 200 ppm, aphid population of mixed ages, 6 days after infestation
Protocol: Example B6: Myzus persicae (Green Peach Aphid): Feeding/Contact Activity
Sunflower leaf discs were placed onto agar in a 24-well microtiter plate and sprayed with aqueous test solutions prepared from 10′000 ppm DMSO stock solutions. After drying, the leaf discs were infested with an aphid population of mixed ages. The samples were assessed for mortality 6 days after infestation.

[6] = tested on: Myzus persicae (Green Peach Aphid); test: Example B8: Myzus persicae intrinsic activity, sucrose solution under Parafilm, 24-well; details: 120 h, test rate of 12 ppm, 5 days after infestation
From the text: Example B8: Myzus persicae (Green Peach Aphid): Intrinsic Activity
Test compounds prepared from 10′000 ppm DMSO stock solutions were applied by pipette into 24-well microtiter plates and mixed with sucrose solution. The plates were closed with a stretched Parafilm. A plastic stencil with 24 holes was placed onto the plate and infested pea seedlings were placed directly on the Parafilm. The infested plate was closed with a gel blotting paper and another plastic stencil and then turned upside down. The samples were assessed for mortality 5 days after infestation.

[7] = tested on: Spodoptera littoralis (Egyptian Cotton Leaf Worm); test: Example B9: Spodoptera littoralis, cotton leaf discs sprayed, L1 larvae; details: foliar, 72 h, application rate of 200 ppm, five L1 larvae, 3 days after infestation, in comparison to untreated samples, read-out: control in at least one of the categories (mortality, anti-feedant effect, or growth inhibition)
Protocol: Example B9: Spodoptera littoralis (Egyptian Cotton Leaf Worm)
Cotton leaf discs were placed onto agar in 24-well microtiter plates and sprayed with aqueous test solutions prepared from 10′000 ppm DMSO stock solutions. After drying the leaf discs were infested with five L1 larvae. The samples were assessed for mortality, anti-feeding effect, and growth inhibition in comparison to untreated samples 3 days after infestation. Control of Spodoptera littoralis by a test sample is given when at least one of the categories mortality, anti-feedant effect, and growth inhibition is higher than the untreated sample.

[8] = tested on: Euschistus heros (Neotropical Brown Stink Bug); test: Example B2: Euschistus heros, soybean leaves sprayed, N2 nymphs; details: 120 h, application rate of 200 ppm, 5 days after infestation, in comparison to untreated samples, read-out: effect in at least one of the two categories (mortality or growth inhibition)
Protocol: Example B2: Euschistus heros (Neotropical Brown Stink Bug)
Soybean leaves on agar in 24-well microtiter plates were sprayed with aqueous test solutions prepared from 10′000 ppm DMSO stock solutions. After drying the leaves were infested with N2 nymphs. The samples were assessed for mortality and growth inhibition in comparison to untreated samples 5 days after infestation.
The following compounds gave an effect of at least 80% in at least one of the two categories (mortality or growth inhibition) at an application rate of 200 ppm: • P1, P2, P3, P7, P11, P12, P16, P17, P18, P22, P25, P29, P32, P33, P37, P38

[9] = tested on: Myzus persicae (Green Peach Aphid); test: Example B7: Myzus persicae systemic activity, pea seedling roots in test solution; details: 144 h, test rate of 24 ppm, 6 days after placing seedlings into test solutions
Protocol: Example B7: Myzus persicae (Green Peach Aphid): Systemic Activity
Roots of pea seedlings infested with an aphid population of mixed ages were placed directly into aqueous test solutions prepared from 10′000 DMSO stock solutions. The samples were assessed for mortality 6 days after placing seedlings into test solutions.

[10] = tested on: Myzus persicae (Green Peach Aphid); test: Example B13: Myzus persicae, sucrose solution under Parafilm, 96-well; details: 120 h, application rate of 50 ppm, 5 days after infestation
From the text: Example B13: Myzus persicae (Green Peach Aphid)
Test compounds prepared from 10′000 ppm DMSO stock solutions were applied by a liquid handling robot into 96-well microtiter plates and mixed with a sucrose solution. Parafilm was stretched over the 96-well microtiter plate and a plastic stencil with 96 holes was placed onto the plate. Aphids were sieved into the wells directly onto the Parafilm. The infested plates were closed with a gel blotting card and a second plastic stencil and then turned upside down. The samples were assessed for mortality 5 days after infestation.

[11] = tested on: Plutella xylostella (Diamondback Moth); test: Example B14: Plutella xylostella, artificial diet in 96-well plates, eggs; details: 216 h, application rate of 500 ppm, 9 days after infestation
Protocol: Example B14: Plutella xylostella (Diamondback Moth)
96-well microtiter plates containing artificial diet were treated with aqueous test solutions, prepared from 10′000 ppm DMSO stock solutions, by a liquid handling robot. After drying, eggs (˜30 per well) were infested onto a netted lid which was suspended above the diet. The eggs hatch and L1 larvae move down to the diet. The samples were assessed for mortality 9 days after infestation.
The following compounds gave an effect of at least 80% average mortality at an application rate of 500 ppm: • P2, P3, P5, P6, P7, P9, P15, P16, P17, P18, P20, P22, P24, P25, P30, P31, P32, P33, P38.

CC(NC(=O)c1cc(C(F)(F)F)cc(C(F)(F)F)c1)c1nc(Br)nn1-c1ncccn1 (stereo not shown) [Compound P4, N-[1-(5-bromo-2-pyrimidin-2-yl-1,2,4-triazol-3-yl)ethyl]-3,5-bis(trifluoromethyl) benzamide]
≥ 80%: percent effect (mortality or growth inhibition) at 200 ppm [1] | mortality at 200 ppm [2] | percent control (mortality, anti-feedant effect or growth inhibition) at 200 ppm [3] | percent effect (mortality or growth inhibition) at 200 ppm [4] | mortality at 200 ppm [5] | mortality at 12 ppm [6] | percent control (mortality, anti-feedant effect or growth inhibition) at 200 ppm [7]

COCc1nc(C(C)NC(=O)c2cc(C(F)(F)F)cc(C(F)(F)F)c2)n(-c2ncccn2)n1 (stereo not shown) [Compound P2, N-[1-[5-(methoxymethyl)-2-pyrimidin-2-yl-1,2,4-triazol-3-yl]ethyl]-3,5-bis(trifluoromethyl)benzamide]
≥ 80%: percent effect (mortality or growth inhibition) at 200 ppm [1] | percent effect (mortality or growth inhibition) at 200 ppm [8] | percent effect (mortality or growth inhibition) at 200 ppm [4] | mortality at 24 ppm [9] | mortality at 12 ppm [6] | percent control (mortality, anti-feedant effect or growth inhibition) at 200 ppm [7] | mortality at 50 ppm [10] | mortality at 500 ppm [11]

CC(NC(=O)c1cc(C(F)(F)F)cc(C(F)(F)F)c1)c1nc(-c2ncno2)nn1-c1ncccn1 (stereo not shown) [Compound P1, N-[1-[5-(1,2,4-oxadiazol-5-yl)-2-pyrimidin-2-yl-1,2,4-triazol-3-yl]ethyl]-3,5-bis(trifluoromethyl)benzamide]
≥ 80%: percent effect (mortality or growth inhibition) at 200 ppm [8] | mortality at 200 ppm [2] | percent control (mortality, anti-feedant effect or growth inhibition) at 200 ppm [3] | percent effect (mortality or growth inhibition) at 200 ppm [4]

CC(NC(=O)c1cc(C(F)(F)F)cc(C(F)(F)F)c1)c1nc(OC(F)(F)F)nn1-c1ccccn1 (stereo not shown) [Compound P25, N-[1-[2-(2-pyridyl)-5-(trifluoromethoxy)-1,2,4-triazol-3-yl]ethyl]-3,5-bis(trifluoromethyl) benzamide]
≥ 80%: percent effect (mortality or growth inhibition) at 200 ppm [1] | percent effect (mortality or growth inhibition) at 200 ppm [8] | percent control (mortality, anti-feedant effect or growth inhibition) at 200 ppm [3] | percent effect (mortality or growth inhibition) at 200 ppm [4] | percent control (mortality, anti-feedant effect or growth inhibition) at 200 ppm [7] | mortality at 500 ppm [11]

CC(c1nc(C(=O)N(C)C)nn1-c1ncccn1)N(C)C(=O)c1cc(C(F)(F)F)cc(C(F)(F)F)c1 (stereo not shown) [Compound P11, 5-[1-[[3,5-bis(trifluoromethyl)benzoyl]-methyl-amino]ethyl]-N,N-dimethyl-1-pyrimidin-2-yl-1,2,4-triazole-3-carboxamide]
≥ 80%: percent effect (mortality or growth inhibition) at 200 ppm [8] | percent control (mortality, anti-feedant effect or growth inhibition) at 200 ppm [3] | mortality at 200 ppm [5] | mortality at 12 ppm [6] | mortality at 50 ppm [10]

CC(NC(=O)c1cc(C(F)(F)F)cc(C(F)(F)F)c1)c1nc(OCC(F)F)nn1-c1ncccn1 (stereo not shown) [Compound P29, N-[1-[5-(2,2-difluoroethoxy)-2-pyrimidin-2-yl-1,2,4-triazol-3-yl]ethyl]-3,5-bis(trifluoromethyl) benzamide]
≥ 80%: percent effect (mortality or growth inhibition) at 200 ppm [1] | percent effect (mortality or growth inhibition) at 200 ppm [8] | percent control (mortality, anti-feedant effect or growth inhibition) at 200 ppm [3] | percent effect (mortality or growth inhibition) at 200 ppm [4] | percent control (mortality, anti-feedant effect or growth inhibition) at 200 ppm [7]

CC(NC(=O)c1cc(Cl)cc(C(F)(F)F)c1)c1nc(Br)nn1-c1ncccn1 (stereo not shown) [Compound P33, N-[1-(5-bromo-2-pyrimidin-2-yl-1,2,4-triazol-3-yl)ethyl]-3-chloro-5-(trifluoromethyl) benzamide]
≥ 80%: percent effect (mortality or growth inhibition) at 200 ppm [1] | percent effect (mortality or growth inhibition) at 200 ppm [8] | percent control (mortality, anti-feedant effect or growth inhibition) at 200 ppm [3] | percent effect (mortality or growth inhibition) at 200 ppm [4] | percent control (mortality, anti-feedant effect or growth inhibition) at 200 ppm [7] | mortality at 50 ppm [10] | mortality at 500 ppm [11]

CC(NC(=O)c1cc(C(F)(F)F)cc(C(F)(F)F)c1)c1nc(OC(F)F)nn1-c1ncccn1 (stereo not shown) [Compound P28, N-[1-[5-(difluoromethoxy)-2-pyrimidin-2-yl-1,2,4-triazol-3-yl]ethyl]-3,5-bis(trifluoromethyl)benzamide]
≥ 80%: percent effect (mortality or growth inhibition) at 200 ppm [1] | mortality at 200 ppm [2] | percent control (mortality, anti-feedant effect or growth inhibition) at 200 ppm [3] | percent effect (mortality or growth inhibition) at 200 ppm [4] | mortality at 12 ppm [6] | percent control (mortality, anti-feedant effect or growth inhibition) at 200 ppm [7]

CC(NC(=O)c1cc(C(F)(F)F)cc(C(F)(F)F)c1)c1nc(C=O)nn1-c1ncccn1 (stereo not shown) [Compound P38, N-[1-(5-formyl-2-pyrimidin-2-yl-1,2,4-triazol-3-yl)ethyl]-3,5-bis(trifluoromethyl) benzamide]
≥ 80%: percent effect (mortality or growth inhibition) at 200 ppm [8] | mortality at 12 ppm [6] | mortality at 50 ppm [10] | mortality at 500 ppm [11]
